Test results published in PubChem BioAssay (NCI).
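Briefly, cells in 96-well plates were exposed to five compound concentrations for 48 h, and endpoints were estimated by linear interpolation. GI50 is the concentration that inhibits growth by half. TGI: total growth inhibition.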

How the values were obtained:
Test in all cases: inhibition of tumour cell growth, NCI panel, 48 h
HL-60(TB) leukemia = test system: HL-60(TB) leukemia
U251 CNS = test system: U251 CNS
A498 renal = test system: A498 renal
IGROV1 ovarian = test system: IGROV1 ovarian
UO-31 renal = test system: UO-31 renal
RPMI-8226 leukemia = test system: RPMI-8226 leukemia
OVCAR-5 ovarian = test system: OVCAR-5 ovarian
RXF 393 renal = test system: RXF 393 renal
SK-MEL-28 melanoma = test system: SK-MEL-28 melanoma
HOP-62 NSCLC = test system: HOP-62 NSCLC

SMILES	TGI (HL-60(TB) leukemia) [µM]	TGI (U251 CNS) [µM]	TGI (A498 renal) [µM]	TGI (IGROV1 ovarian) [µM]	TGI (UO-31 renal) [µM]	TGI (RPMI-8226 leukemia) [µM]	TGI (OVCAR-5 ovarian) [µM]	TGI (RXF 393 renal) [µM]	TGI (SK-MEL-28 melanoma) [µM]	TGI (HOP-62 NSCLC) [µM]	GI50 (HL-60(TB) leukemia) [µM]	GI50 (U251 CNS) [µM]	GI50 (A498 renal) [µM]	GI50 (IGROV1 ovarian) [µM]	GI50 (UO-31 renal) [µM]	GI50 (RPMI-8226 leukemia) [µM]	GI50 (OVCAR-5 ovarian) [µM]	GI50 (RXF 393 renal) [µM]	GI50 (SK-MEL-28 melanoma) [µM]	GI50 (HOP-62 NSCLC) [µM]
O=C(CSCC(=O)N/N=C/c1cccc(O)c1)N/N=C/c1cccc(O)c1	> 100	> 100	> 100	> 100	> 100	> 100	> 100	> 100	> 100	> 100	–	–	–	–	–	–	–	–	–	–
CCOC(=O)c1c2c(n(-c3ccc(C)cc3)c1C)-c1ccccc1C(=O)C2(C(=O)OCC)C(=O)OCC	18.6	> 100	97.3	> 87.7	> 100	57.5	> 100	75.2	> 85.5	> 100	–	–	–	–	–	–	–	–	–	–
O=c1[nH]c2[nH]c(=S)[nH]c(=S)c2[nH]1	> 100	> 100	> 100	> 100	> 100	> 100	> 100	> 100	> 100	> 100	–	–	–	–	–	–	–	–	–	–
CN1C(=O)CC(=O)N1/C(=C/c1ccccc1)c1ccccc1	–	> 100	–	42.2	32	> 100	> 100	54.1	> 100	> 100	–	–	–	–	–	–	–	–	–	–
COc1ccc2nc3cc(Cl)ccc3c(NC(C)CCCN(CCCl)CCCl)c2c1 (centres undefined)	0.94	5.65	18.7	7.11	11	2.93	8	4.9	18.4	7.38	–	–	–	–	–	–	–	–	–	–
CSCCC(C(=O)O)N(C)C (centres undefined)	> 100	> 100	> 100	> 100	> 100	> 100	> 100	> 100	> 100	> 100	–	–	–	–	–	–	–	–	–	–
C=CCNC(=O)C(C)C1CCC2(C)C=CC(=O)C(C)=C2C1O (centres undefined)	> 100	> 100	> 100	> 100	> 100	> 100	> 100	> 100	> 100	> 100	–	–	–	–	–	–	–	–	–	–
Oc1ccc(C(=C(Br)c2ccccc2)c2ccc(O)cc2)cc1	> 100	15.3	34.2	19.9	19.7	96.1	31.2	27.2	24	22.2	–	–	–	–	–	–	–	–	–	–
C=C(C#N)C(=O)OCC(CC)CC.C=C(C#N)C(=O)OCC(CC)CC.CS(C)=O.CS(C)=O.Nc1c(N=Nc2ccc(-c3ccc(N=Nc4cc(S(=O)(=O)[O-])c5ccccc5c4N)cc3)cc2)cc(S(=O)(=O)[O-])c2ccccc12.[Pt+2]	23.6	> 100	> 100	> 100	> 100	> 80.8	> 100	51.1	43	> 100	15.8	46.7	> 71.4	29.4	> 100	26.9	> 78.4	19.5	21.7	> 82.8
Cc1ccc(S(=O)(=O)OC2CC(C(C)(C)C)CCC2c2ccccc2)cc1 (centres undefined)	> 100	> 100	> 100	> 100	> 100	> 100	> 100	> 100	> 100	> 100	–	–	–	–	–	–	–	–	–	–
O=C1c2cc(O)c(O)cc2O[C@H](c2ccc(O)c(O)c2)[C@H]1O	> 100	> 100	> 100	> 100	> 100	> 100	> 100	–	> 100	> 100	–	–	–	–	–	–	–	–	–	–
O=C1c2ccccc2C(=O)c2[nH]cnc21	> 100	> 100	> 100	–	> 100	–	–	> 100	> 100	> 100	–	–	–	–	–	–	–	–	–	–
CCN(CC)CCNc1ccc2ncn3c4ccc(O)cc4c(=O)c1c23	11.6	2.75	13.7	14.3	6.94	11.1	17.4	1.96	21.8	11.6	–	–	–	–	–	–	–	–	–	–
